This is an account of results in ChEMBL document CHEMBL4261658, “4-Hydroxy-3-nitro-5-ureido-benzenesulfonamides Selectively Target the Tumor-Associated Carbonic Anhydrase Isoforms IX and XII Showing Hypoxia-Enhanced Antiproliferative Profiles” (J Med Chem, 2018).

In one assay the target is Carbonic anhydrase 9 (Homo sapiens, UniProt Q16790). Nature of the assay: Inhibition of carbonic anhydrase 9 (unknown origin) preincubated for 15 mins by stopped flow CO2 hydration assay.
For another assay, the target named is Carbonic anhydrase 12 (Homo sapiens, UniProt O43570).
Carbonic anhydrase 12, sequence (O43570 whole entry): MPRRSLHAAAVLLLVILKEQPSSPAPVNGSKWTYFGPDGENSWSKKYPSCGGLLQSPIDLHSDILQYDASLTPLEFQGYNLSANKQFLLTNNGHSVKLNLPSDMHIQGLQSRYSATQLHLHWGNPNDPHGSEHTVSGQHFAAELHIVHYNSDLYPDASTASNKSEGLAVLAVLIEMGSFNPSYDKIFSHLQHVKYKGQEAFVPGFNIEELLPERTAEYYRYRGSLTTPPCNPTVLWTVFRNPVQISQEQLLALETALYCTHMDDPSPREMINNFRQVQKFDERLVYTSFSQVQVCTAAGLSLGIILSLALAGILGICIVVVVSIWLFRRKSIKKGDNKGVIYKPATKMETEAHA

Description for Carbonic anhydrase 12: Inhibition of carbonic anhydrase 12 (unknown origin) preincubated for 15 mins by stopped flow CO2 hydration assay

Consider `Cc1cc(C)cc(NC(=O)Nc2cc(S(N)(=O)=O)cc([N+](=O)[O-])c2O)c1`, for which the values for the Ki on Carbonic anhydrase 9 and on Carbonic anhydrase 12 were 530 nM and 620 nM, respectively.

As for `Cc1cc(NC(=O)Nc2cc(S(N)(=O)=O)cc([N+](=O)[O-])c2O)ccc1F`, the Ki (in general, the equilibrium dissociation constant of an inhibitor or competing ligand from its target) at Carbonic anhydrase 9 was found to be 370 nM; on Carbonic anhydrase 12 it was 880 nM.

With `NS(=O)(=O)c1cc([N+](=O)[O-])c(OC(=O)c2ccccc2)c([N+](=O)[O-])c1`, the Ki is 90 nM at Carbonic anhydrase 9 and 70 nM on Carbonic anhydrase 12.

For the compound `NS(=O)(=O)c1cc(O)c(O)c([N+](=O)[O-])c1`, the Ki turned out to be 240 nM on Carbonic anhydrase 9 and 90 nM at Carbonic anhydrase 12.

In the case of `NS(=O)(=O)c1cc(NC(=O)c2ccccc2)c(OC(=O)c2ccccc2)c([N+](=O)[O-])c1`, the figures for the inhibition constant Ki on Carbonic anhydrase 9 and at Carbonic anhydrase 12 were 130 nM and 300 nM, respectively.

For the compound `COc1cccc(NC(=O)Nc2cc(S(N)(=O)=O)cc([N+](=O)[O-])c2O)c1`, the Ki at Carbonic anhydrase 9 stood at 460 nM; at Carbonic anhydrase 12, 530 nM.

As for `NS(=O)(=O)c1ccc(O)c([N+](=O)[O-])c1`, the Ki at Carbonic anhydrase 9 was determined as 120 nM; at Carbonic anhydrase 12, 160 nM.
